Test systems include RPMI-8226 leukemia; U251 CNS; HCT-116 colon; IGROV1 ovarian; SK-MEL-28 melanoma; M14 melanoma; LOX IMVI melanoma; SF-268 CNS; T-47D breast; KM12 colon.
Assay in all cases: inhibition of tumour cell growth, NCI panel, 48 h

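Briefly, cells in 96-well plates were exposed to five compound concentrations for 48 h, and endpoints were estimated by linear interpolation. GI50 marks 50% less growth. Definition used: TGI = concentration required for complete inhibition of growth.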 Where only a bound is given, the exact number is not on record here.

As to `CCOC(=O)c1ccc(NC(=O)NC2=NCCS2)cc1`, the GI50 in the experiment with RPMI-8226 leukemia was 1.93 µM; with U251 CNS it was 0.899 µM; with HCT-116 colon, 50.9 µM; in the experiment on IGROV1 ovarian it was 2.11 µM; in the experiment on SK-MEL-28 melanoma, 64.9 µM; with M14 melanoma, 2.66 µM. The GI50 is 39.9 µM with LOX IMVI melanoma, 3.5 µM with SF-268 CNS, 4.13 µM with T-47D breast and 0.434 µM in the experiment with KM12 colon. Besides, the TGI with RPMI-8226 leukemia, in the experiment on U251 CNS, in the experiment on HCT-116 colon, with IGROV1 ovarian, with SK-MEL-28 melanoma and in the experiment with M14 melanoma was more than 100 µM each time. In addition, the TGI with LOX IMVI melanoma, with SF-268 CNS, in the experiment on T-47D breast and in the experiment on KM12 colon was more than 100 µM in each case.
In the case of `CCCN(CCC)c1ccc(C=O)c(Cl)c1`, the GI50 is 40.1 µM in the experiment on RPMI-8226 leukemia; 6.6 µM in the experiment on U251 CNS; 2.2 µM in the experiment with HCT-116 colon; 0.558 µM in the experiment on IGROV1 ovarian; 20 µM in the experiment with SK-MEL-28 melanoma; 26 µM in the experiment on M14 melanoma. The GI50 with LOX IMVI melanoma was 23.4 µM; in the experiment on SF-268 CNS, 33.9 µM; with T-47D breast, 0.375 µM; in the experiment with KM12 colon, 28.6 µM. Also, the TGI in the experiment on RPMI-8226 leukemia is more than 100 µM; in the experiment on U251 CNS it was 29.9 µM; with HCT-116 colon it was 19 µM; in the experiment on IGROV1 ovarian, 7.18 µM; in the experiment on SK-MEL-28 melanoma it was 68.9 µM; in the experiment with M14 melanoma, more than 100 µM. Also, the TGI is more than 63.7 µM in the experiment with LOX IMVI melanoma, more than 91.5 µM with SF-268 CNS, 5.1 µM in the experiment with T-47D breast and more than 83.6 µM in the experiment with KM12 colon.
As for `COc1ccc(-c2c(C#N)c(N)nc(N3CCOCC3)c2C#N)cc1`, the GI50 in the experiment with RPMI-8226 leukemia was 16.1 µM; in the experiment on U251 CNS it was 27.4 µM; in the experiment with HCT-116 colon it was 17.7 µM; with IGROV1 ovarian, 3.08 µM; in the experiment on SK-MEL-28 melanoma it was 33.9 µM; in the experiment on M14 melanoma, 22.6 µM. For the same molecule, the GI50 in the experiment on LOX IMVI melanoma was 14.4 µM; with SF-268 CNS it was 32.3 µM; in the experiment on T-47D breast, 0.828 µM; with KM12 colon it was 21.7 µM. The TGI in the experiment with RPMI-8226 leukemia is 58.7 µM; in the experiment with U251 CNS it was more than 100 µM; with HCT-116 colon, 65.2 µM; with IGROV1 ovarian, 21 µM; with SK-MEL-28 melanoma, more than 100 µM; in the experiment with M14 melanoma it was 72.8 µM. In addition, the TGI in the experiment on LOX IMVI melanoma was 36.9 µM; in the experiment with SF-268 CNS, more than 100 µM; in the experiment with T-47D breast, 6.14 µM; in the experiment on KM12 colon, 87.4 µM.
As to `CC(/C=C/C(O)=C1/C(=O)CNC1=O)=C\[C@@H](C)[C@H]1O[C@@]2(C)O[C@H](C(=O)[C@@H]3O[C@@]32C)[C@@H]1C`, the TGI in the experiment with RPMI-8226 leukemia was 35.9 µM; in the experiment on U251 CNS, 54.9 µM; in the experiment with HCT-116 colon, 39 µM; in the experiment with IGROV1 ovarian, 44.9 µM; with SK-MEL-28 melanoma, 38.7 µM; in the experiment on M14 melanoma, more than 100 µM. Besides, the TGI with LOX IMVI melanoma is 33.5 µM; in the experiment on SF-268 CNS, 43.9 µM; in the experiment on T-47D breast, 37.3 µM; with KM12 colon, 36.4 µM.
`O=C1c2cccnc2-c2nc(-c3cccnc3)cc3c2c1nc1ccccc13`: the GI50 with RPMI-8226 leukemia is 2.59 µM; in the experiment on U251 CNS, 3.61 µM; in the experiment with HCT-116 colon it was 2.8 µM; in the experiment with IGROV1 ovarian, 3.12 µM; in the experiment with SK-MEL-28 melanoma, 20.5 µM; in the experiment with M14 melanoma it was 1.93 µM. Also, the GI50 with LOX IMVI melanoma was 2.8 µM; in the experiment with SF-268 CNS it was 3.73 µM; in the experiment with T-47D breast it was 10.4 µM; in the experiment on KM12 colon, 4.16 µM. In addition, the TGI in the experiment with RPMI-8226 leukemia was more than 100 µM; in the experiment with U251 CNS, more than 100 µM; in the experiment with HCT-116 colon it was more than 32.7 µM; in the experiment with IGROV1 ovarian, 28.4 µM; in the experiment on SK-MEL-28 melanoma, 59 µM; in the experiment on M14 melanoma, 3.51 µM. For the same molecule, the TGI in the experiment with LOX IMVI melanoma was more than 25.1 µM; with SF-268 CNS, more than 26.5 µM; in the experiment on T-47D breast, more than 65.2 µM; with KM12 colon, more than 44.5 µM.
Take `Nc1nc(N)c2cc(Sc3ccc4ccccc4c3)ccc2n1`: the TGI came out at 4.72 µM with RPMI-8226 leukemia; 3.38 µM with U251 CNS; 1.69 µM with HCT-116 colon; 14.1 µM in the experiment on IGROV1 ovarian; 2.9 µM in the experiment with SK-MEL-28 melanoma; 2.88 µM with M14 melanoma. In addition, the TGI is 1.93 µM in the experiment with LOX IMVI melanoma, 4.19 µM in the experiment with SF-268 CNS, 4.04 µM in the experiment with T-47D breast and 3.25 µM in the experiment with KM12 colon. Besides, the GI50 in the experiment with IGROV1 ovarian is 0.817 µM; with SK-MEL-28 melanoma, 1.54 µM.
`Nc1c(C(=O)c2cccc(C#CCN3CCCCC3)c2)cnn1-c1ccc(F)cc1`: the GI50 in the experiment with RPMI-8226 leukemia is more than 17 µM; in the experiment on U251 CNS, more than 25 µM; in the experiment on HCT-116 colon it was more than 17.7 µM; with IGROV1 ovarian, more than 25 µM; with SK-MEL-28 melanoma it was more than 25 µM; with M14 melanoma, more than 25 µM. The GI50 with LOX IMVI melanoma was more than 25 µM; in the experiment on SF-268 CNS, more than 25 µM; in the experiment with T-47D breast, 11.3 µM; with KM12 colon, 18.7 µM. The TGI in the experiment with RPMI-8226 leukemia, with U251 CNS, in the experiment with HCT-116 colon, with IGROV1 ovarian, in the experiment on SK-MEL-28 melanoma and with M14 melanoma was more than 25 µM in each case. The TGI with LOX IMVI melanoma, in the experiment on SF-268 CNS, with T-47D breast and in the experiment with KM12 colon was more than 25 µM each time.

The record behind these values is PubChem BioAssay (NCI).
